Test results from ChEMBL document CHEMBL1137177, “Synthesis of 2',5'-oligoadenylate analogs containing an adenine acyclonucleoside and their ability to activate human RNase L” (Bioorg Med Chem Lett, 2004).
pEC50: −log10 of the molar value.

Assay: Effective concentration for activation of RNase L

Compared with `Nc1ncnc2c1ncn2C[C@H](OP(=O)(O)OC[C@H]1O[C@@H](n2cnc3c(N)ncnc32)[C@H](OP(=O)(O)OC[C@H]2O[C@@H](n3cnc4c(N)ncnc43)[C@H](O)[C@@H]2O)[C@@H]1O)[C@H](O)CO[PH](=O)O[C@@H]1[C@H](O)[C@@H](COP(=O)(O)O)O[C@H]1n1cnc2c(N)ncnc21` (stereo partly drawn), `Nc1ncnc2c1ncn2C[C@H](OP(=O)(O)OC[C@H]1O[C@@H](n2cnc3c(N)ncnc32)[C@H](O)[C@@H]1O)[C@H](O)COP(=O)(O)O[C@@H]1[C@H](O)[C@@H](CO[PH](=O)O[C@@H]2[C@H](O)[C@@H](COP(=O)(O)O)O[C@H]2n2cnc3c(N)ncnc32)O[C@H]1n1cnc2c(N)ncnc21` (stereo partly drawn) is 0.72 log units higher in pEC50: 8.05 for the first, 8.77 for the second.

Molecule `Nc1ncnc2c1ncn2[C@@H]1O[C@H](COP(=O)(O)O[C@@H]2[C@H](O)[C@@H](COP(=O)(O)O[C@@H]3[C@H](O)[C@@H](COP(=O)(O)O[C@@H]4[C@H](O)[C@@H](COP(=O)(O)O)O[C@H]4n4cnc5c(N)ncnc54)O[C@H]3n3cnc4c(N)ncnc43)O[C@H]2n2cnc3c(N)ncnc32)[C@@H](O)[C@H]1O` has a pEC50 of 9.00.
